From ChEMBL document CHEMBL3046602, “Chiral 1,5-disubstituted 1,3,5-hexahydrotriazine-2-N-nitroimine analogues as novel potent neonicotinoids: Synthesis, insecticidal evaluation and molecular docking studies” (2011) come the findings set out here.

Type in all cases: functional
Experiment [1] has as its system Aphis medicaginis. Nature of the experiment: Insecticidal activity against Aphis medicaginis assessed as insect mortality at 500 mg/L measured after 72 hr post compound treatment.
Experiment [2] deals with Aphis medicaginis. Briefly: Insecticidal activity against Aphis medicaginis assessed as insect mortality at 100 mg/L measured after 72 hr post compound treatment.
Experiment [3] concerns Aphis medicaginis. Briefly: Insecticidal activity against Aphis medicaginis assessed as insect mortality at 10 mg/L measured after 72 hr post compound treatment.

By mortality is commonly meant the percentage killed. Regarding `CCOC(=O)[C@@H](c1ccc(Cl)cc1)N1CN/C(=N\[N+](=O)[O-])N(Cc2ccc(Cl)nc2)C1`, in the experiment with Aphis medicaginis [1], the mortality at 500 µg/mL is not below 70%. For the same compound, the mortality at 100 µg/mL in the experiment on Aphis medicaginis [2] is not below 60%. The mortality at 10 µg/mL in the experiment on Aphis medicaginis [3] was not below 50%.

For `CCOC(=O)[C@H](CC(C)C)N1CN/C(=N\[N+](=O)[O-])N(Cc2ccc(Cl)nc2)C1`, the mortality at 500 µg/mL in the experiment with Aphis medicaginis [1] was determined as 100%. In addition, in the experiment with Aphis medicaginis [2], the mortality at 100 µg/mL is not below 80%. The mortality at 10 µg/mL with Aphis medicaginis [3] is not below 70%.

As to `CCOC(=O)[C@H]([C@@H](C)CC)N1CN/C(=N\[N+](=O)[O-])N(Cc2ccc(Cl)nc2)C1`, the mortality at 500 µg/mL in the experiment on Aphis medicaginis [1] is not below 80%. In addition, the mortality at 100 µg/mL with Aphis medicaginis [2] is not below 80%. Further, in the experiment with Aphis medicaginis [3], the mortality at 10 µg/mL was not below 60%.

With `CCOC(=O)[C@H](Cc1ccccc1)N1CN/C(=N\[N+](=O)[O-])N(Cc2cnc(Cl)s2)C1`, the mortality at 500 µg/mL with Aphis medicaginis [1] was not below 70%. In the experiment on Aphis medicaginis [2], the mortality at 100 µg/mL is not below 60%.

Turning to `CCOC(=O)[C@H]([C@@H](C)CC)N1CN/C(=N\[N+](=O)[O-])N(Cc2cnc(Cl)s2)C1`, the mortality at 500 µg/mL in the experiment with Aphis medicaginis [1] was not below 80%. Besides, the mortality at 100 µg/mL in the experiment on Aphis medicaginis [2] is not below 60%. In addition, the mortality at 10 µg/mL in the experiment with Aphis medicaginis [3] was not below 50%.

As to `CCOC(=O)[C@H](C(C)C)N1CN/C(=N\[N+](=O)[O-])N(Cc2cnc(Cl)s2)C1`, the mortality at 500 µg/mL with Aphis medicaginis [1] was not below 80%. In the experiment on Aphis medicaginis [2], the mortality at 100 µg/mL was not below 60%. In the experiment with Aphis medicaginis [3], the mortality at 10 µg/mL was not below 50%.

For the compound `CCOC(=O)CCN1CN/C(=N\[N+](=O)[O-])N(Cc2ccc(Cl)nc2)C1`, the mortality at 500 µg/mL in the experiment on Aphis medicaginis [1] was found to be 100%. Besides, in the experiment on Aphis medicaginis [2], the mortality at 100 µg/mL was not below 80%. For the same compound, in the experiment with Aphis medicaginis [3], the mortality at 10 µg/mL is not below 70%.

For `CCOC(=O)[C@H](CCSC)N1CN/C(=N\[N+](=O)[O-])N(Cc2cnc(Cl)s2)C1`, in the experiment on Aphis medicaginis [1], the mortality at 500 µg/mL was not below 90%. Also, the mortality at 100 µg/mL with Aphis medicaginis [2] is not below 60%. Besides, the mortality at 10 µg/mL in the experiment with Aphis medicaginis [3] is not below 50%.

As to `CCOC(=O)CCN1CN/C(=N\[N+](=O)[O-])N(Cc2cnc(Cl)s2)C1`, in the experiment with Aphis medicaginis [1], the mortality at 500 µg/mL turned out to be 100%. In addition, the mortality at 100 µg/mL in the experiment on Aphis medicaginis [2] was not below 70%. Further, in the experiment with Aphis medicaginis [3], the mortality at 10 µg/mL was not below 60%.

Regarding `O=[N+]([O-])/N=C1\NCCN1Cc1ccc(Cl)nc1` [IMIDACLOPRID], the mortality at 500 µg/mL in the experiment with Aphis medicaginis [1] was determined as 100%. The mortality at 100 µg/mL in the experiment with Aphis medicaginis [2] stood at 100%. The mortality at 10 µg/mL with Aphis medicaginis [3] is 100%.

In the case of `CCOC(=O)[C@H](CCSC)N1CN/C(=N\[N+](=O)[O-])N(Cc2ccc(Cl)nc2)C1`, the mortality at 500 µg/mL in the experiment on Aphis medicaginis [1] was not below 70%. The mortality at 100 µg/mL with Aphis medicaginis [2] is not below 60%.

Regarding `CCOC(=O)CCCN1CN/C(=N\[N+](=O)[O-])N(Cc2ccc(Cl)nc2)C1`, in the experiment on Aphis medicaginis [1], the mortality at 500 µg/mL was 100%. Besides, in the experiment on Aphis medicaginis [2], the mortality at 100 µg/mL is 100%. In addition, in the experiment on Aphis medicaginis [3], the mortality at 10 µg/mL is not below 80%.

`CCOC(=O)[C@H](CC(C)C)N1CN/C(=N\[N+](=O)[O-])N(Cc2cnc(Cl)s2)C1`: the mortality at 500 µg/mL in the experiment on Aphis medicaginis [1] came to 100%. Further, the mortality at 100 µg/mL in the experiment on Aphis medicaginis [2] stood at 100%. Further, the mortality at 10 µg/mL in the experiment with Aphis medicaginis [3] is not below 80%.

Take `CCOC(=O)[C@H](C)N1CN/C(=N\[N+](=O)[O-])N(Cc2cnc(Cl)s2)C1`: in the experiment on Aphis medicaginis [1], the mortality at 500 µg/mL is not below 80%. In addition, the mortality at 100 µg/mL in the experiment on Aphis medicaginis [2] is not below 60%. Besides, in the experiment on Aphis medicaginis [3], the mortality at 10 µg/mL was not below 60%.

Regarding `CCOC(=O)[C@@H](c1ccc(Cl)cc1)N1CN/C(=N\[N+](=O)[O-])N(Cc2cnc(Cl)s2)C1`, the mortality at 500 µg/mL in the experiment with Aphis medicaginis [1] was 100%. For the same compound, the mortality at 100 µg/mL in the experiment with Aphis medicaginis [2] was determined as 100%. Also, the mortality at 10 µg/mL with Aphis medicaginis [3] is not below 90%.

On to `CCOC(=O)[C@H](C)N1CN/C(=N\[N+](=O)[O-])N(Cc2ccc(Cl)nc2)C1`, for which the mortality at 500 µg/mL in the experiment with Aphis medicaginis [1] was not below 70%. In the experiment on Aphis medicaginis [2], the mortality at 100 µg/mL is not below 60%. The mortality at 10 µg/mL in the experiment on Aphis medicaginis [3] is not below 50%.

Turning to `CCOC(=O)C[C@@H](C(=O)OCC)N1CN/C(=N\[N+](=O)[O-])N(Cc2cnc(Cl)s2)C1`, the mortality at 500 µg/mL in the experiment with Aphis medicaginis [1] was not below 90%. For the same compound, the mortality at 100 µg/mL with Aphis medicaginis [2] was not below 80%. Also, the mortality at 10 µg/mL in the experiment on Aphis medicaginis [3] was not below 70%.

For `CCOC(=O)CC(CC(=O)OCC)N1CN/C(=N\[N+](=O)[O-])N(Cc2ccc(Cl)nc2)C1`, the mortality at 500 µg/mL in the experiment on Aphis medicaginis [1] came to 100%. Further, the mortality at 100 µg/mL with Aphis medicaginis [2] was not below 70%. In the experiment with Aphis medicaginis [3], the mortality at 10 µg/mL was not below 60%.

On to `CCOC(=O)CC(CC(=O)OCC)N1CN/C(=N\[N+](=O)[O-])N(Cc2cnc(Cl)s2)C1`, for which the mortality at 500 µg/mL in the experiment on Aphis medicaginis [1] is not below 90%. The mortality at 100 µg/mL in the experiment on Aphis medicaginis [2] was not below 70%. Also, the mortality at 10 µg/mL in the experiment with Aphis medicaginis [3] was not below 60%.

As for `CCOC(=O)C[C@@H](C(=O)OCC)N1CN/C(=N\[N+](=O)[O-])N(Cc2ccc(Cl)nc2)C1`, in the experiment with Aphis medicaginis [1], the mortality at 500 µg/mL is not below 90%. Besides, the mortality at 100 µg/mL with Aphis medicaginis [2] was not below 70%. Further, the mortality at 10 µg/mL in the experiment with Aphis medicaginis [3] was not below 60%.

`CCOC(=O)CN1CN/C(=N\[N+](=O)[O-])N(Cc2cnc(Cl)s2)C1`: the mortality at 500 µg/mL in the experiment on Aphis medicaginis [1] was not below 80%. In the experiment on Aphis medicaginis [2], the mortality at 100 µg/mL is not below 70%. Besides, in the experiment on Aphis medicaginis [3], the mortality at 10 µg/mL is not below 60%.

Consider `CCOC(=O)[C@H](Cc1ccccc1)N1CN/C(=N\[N+](=O)[O-])N(Cc2ccc(Cl)nc2)C1`, for which the mortality at 500 µg/mL in the experiment on Aphis medicaginis [1] was not below 70%. Further, the mortality at 100 µg/mL with Aphis medicaginis [2] was not below 60%. In addition, the mortality at 10 µg/mL with Aphis medicaginis [3] is not below 50%.

`CCOC(=O)CCCN1CN/C(=N\[N+](=O)[O-])N(Cc2cnc(Cl)s2)C1`: the mortality at 500 µg/mL with Aphis medicaginis [1] stood at 100%. Moreover, in the experiment on Aphis medicaginis [2], the mortality at 100 µg/mL stood at 100%. Also, the mortality at 10 µg/mL in the experiment on Aphis medicaginis [3] is not below 80%.

`CCOC(=O)CN1CN/C(=N\[N+](=O)[O-])N(Cc2ccc(Cl)nc2)C1`: the mortality at 500 µg/mL in the experiment on Aphis medicaginis [1] was not below 80%. Besides, the mortality at 100 µg/mL in the experiment on Aphis medicaginis [2] is not below 70%. Also, the mortality at 10 µg/mL with Aphis medicaginis [3] is not below 60%.

As for `CCOC(=O)[C@H](C(C)C)N1CN/C(=N\[N+](=O)[O-])N(Cc2ccc(Cl)nc2)C1`, the mortality at 500 µg/mL in the experiment with Aphis medicaginis [1] was not below 80%. Also, in the experiment on Aphis medicaginis [2], the mortality at 100 µg/mL was not below 70%. In the experiment on Aphis medicaginis [3], the mortality at 10 µg/mL is not below 60%.

For `CN1COCN(Cc2cnc(Cl)s2)/C1=N\[N+](=O)[O-]` [THIAMETHOXAM], the mortality at 500 µg/mL in the experiment on Aphis medicaginis [1] amounted to 100%. In addition, the mortality at 100 µg/mL with Aphis medicaginis [2] was 100%. Further, in the experiment on Aphis medicaginis [3], the mortality at 10 µg/mL turned out to be 100%.
